SMILES strings stand for the structures. pEC50: −log10 of the molar value.

The target of the test is T1, CXCR7 (Homo sapiens, UniProt P25106).
T1 construct: host or cells: CHO-K1 (PathHunter CHO-K1 CXCR7 b-arrestin cell line, stably transfected)
T1 sequence (P25106 whole entry): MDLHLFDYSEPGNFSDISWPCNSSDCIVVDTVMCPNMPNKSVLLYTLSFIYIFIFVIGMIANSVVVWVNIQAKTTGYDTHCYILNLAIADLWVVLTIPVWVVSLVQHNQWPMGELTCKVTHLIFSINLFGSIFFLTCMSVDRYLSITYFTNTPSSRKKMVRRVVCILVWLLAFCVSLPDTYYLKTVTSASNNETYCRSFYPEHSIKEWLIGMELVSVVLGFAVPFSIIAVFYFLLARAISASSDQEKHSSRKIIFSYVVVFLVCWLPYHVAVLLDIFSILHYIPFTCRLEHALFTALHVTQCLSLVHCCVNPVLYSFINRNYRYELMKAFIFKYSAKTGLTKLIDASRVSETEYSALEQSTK
T1 sequence (P32121 whole entry partner): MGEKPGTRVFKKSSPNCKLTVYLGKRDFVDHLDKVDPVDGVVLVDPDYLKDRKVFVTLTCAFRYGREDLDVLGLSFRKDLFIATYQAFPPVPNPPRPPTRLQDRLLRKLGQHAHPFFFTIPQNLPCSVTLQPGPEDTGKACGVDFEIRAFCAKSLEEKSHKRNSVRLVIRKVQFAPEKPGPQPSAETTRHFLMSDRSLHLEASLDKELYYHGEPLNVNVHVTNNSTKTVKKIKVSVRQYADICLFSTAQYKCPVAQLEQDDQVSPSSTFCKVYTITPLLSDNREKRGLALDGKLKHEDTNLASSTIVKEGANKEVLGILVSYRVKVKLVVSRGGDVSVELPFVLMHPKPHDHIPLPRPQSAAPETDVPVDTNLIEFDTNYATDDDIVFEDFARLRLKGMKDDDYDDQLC
Description: PathHunter CHO-K1 CXCR7 b-arrestin recruitment assay (CXCR7 agonistic activity). The settings on record: PathHunter CHO-K1 CXCR7 b-arrestin cell line. It is filed as cell-based. Summed up:
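Stable CHO-K1 line with C-terminally ProLink-tagged CXCR7 and β-arrestin 2–EA fusion; β-arrestin recruitment restores β-gal activity, read by chemiluminescence after 1 h RT detection. Cells seeded 24 h, starved in OPTIMEM 3–4 h, exposed to compounds 90 min at 37 °C in HBSS/HEPES/BSA. Geometric-mean EC50 from repeated measurements.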
In the case of `CC(C)(O)CN(Cc1ccccc1C(F)(F)F)C(=O)CNc1cccc2c1CCN(CC1CC1)C2` [Example 241, 2-(2-Cyclopropylmethyl-1,2,3,4-tetrahydro-isoquinolin-5-ylamino)-N-(2-hydroxy-2-methyl-propyl)-N-(2-trifluoromethyl-benzyl)-acetamide], the pEC50 was 8.10.

Consider `CCCOC(=O)N1CCc2c(cccc2NCC(=O)N(CCNC)Cc2ccccc2C(F)(F)F)C1` [compound 398], for which the pEC50 was 7.09.

`CN1CCCC(N(Cc2ccccc2C(F)(F)F)C(=O)CNc2cccc3c2CCN(C(=O)OC(C)(C)C)C3)C1` (racemic) [Example 11, rac-5-({[(1-Methyl-piperidin-3-yl)-(2-trifluoromethyl-benzyl)-carbamoyl]-methyl}-amino)-3,4-dihydro-1H-isoquinoline-2-carboxylic acid tert-butyl ester] showed a pEC50 of 7.28.

`O=C(CNc1cccc2c1CCN(CC1CC1)C2)N(CCN1CCC(F)(F)CC1)Cc1ccccc1C(F)(F)F` [Example 277, 2-(2-Cyclopropylmethyl-1,2,3,4-tetrahydro-isoquinolin-5-ylamino)-N-[2-(4,4-difluoro-piperidin-1-yl)-ethyl]-N-(2-trifluoromethyl-benzyl)-acetamide] showed a pEC50 of 7.55.

Molecule `CCN1CCc2c(cccc2NCC(=O)N(CCN(C)C)Cc2ccccc2)C1` [compound 107, N-Benzyl-N-(2-dimethylamino-ethyl)-2-(2-ethyl-1,2,3,4-tetrahydro-isoquinolin-5-ylamino)-acetamide] showed a pEC50 of 7.37.

For `CN(C)CCN(Cc1ccccc1)C(=O)CNc1cccc2c1CCN(CCC(C)(C)C)C2` [compound 120], the pEC50 is 6.81.

Turning to `CN(C)CCN(Cc1ccccc1Cl)C(=O)CCc1cccc2c1CCN(C(=O)OC(C)(C)C)C2` [Example 98, 5-{2-[(2-Chloro-benzyl)-(2-dimethylamino-ethyl)-carbamoyl]-ethyl}-3,4-dihydro-1H-isoquinoline-2-carboxylic acid tert-butyl ester], the pEC50 is 6.65. This pEC50 and that of the molecule before are within 0.2 log units of each other.

In turn, `COCCN1CCc2c(cccc2NCC(=O)N(Cc2ccccc2C(F)(F)F)CC2(C)COC2)C1` [Example 303, 2-[2-(2-Methoxy-ethyl)-1,2,3,4-tetrahydro-isoquinolin-5-ylamino]-N-(3-methyl-oxetan-3-ylmethyl)-N-(2-trifluoromethyl-benzyl)-acetamide] showed a pEC50 of 6.61.

Consider `CCC(=O)N1CCc2c(cccc2OCC(=O)N(CCN(C)C)Cc2ccccc2)C1` [compound 169, N-Benzyl-N-(2-dimethylamino-ethyl)-2-(2-propionyl-1,2,3,4-tetrahydro-isoquinolin-5-yloxy)-acetamide], for which the pEC50 was 7.38. Compared with the last molecule, the pEC50 is 0.77 log units higher.

Consider `CNCCN(Cc1ccccc1C(F)(F)F)C(=O)CNc1cccc2c1CCN(CC1CC1)C2C` (racemic) [compound 382], for which the pEC50 is 8.10. Compared with the last molecule, the pEC50 is 0.72 log units higher.

For the molecule `CN(C)CCN(Cc1ncccc1Cl)C(=O)CNc1cccc2c1CCN(C(=O)[C@@H]1C[C@@H]1F)C2` (racemic) [Example 293, rac-N-(3-Chloro-pyridin-2-ylmethyl)-N-(2-dimethylamino-ethyl)-2-[2-((1S*,2S*)-2-fluoro-cyclopropanecarbonyl)-1,2,3,4-tetrahydro-isoquinolin-5-ylamino]-acetamide], the pEC50 is 7.70. Compared with the last molecule, the pEC50 is 0.40 log units lower.

Turning to `CN1CCCC(N(Cc2ccccc2C(F)(F)F)C(=O)CNc2cccc3c2CCN(CC2CC2)C3)C1` (racemic) [compound 136], the pEC50 was 9.00.

The molecule `CCN1CCc2c(cccc2NCC(=O)N(CCN(C)C)Cc2ccccc2C(F)(F)F)C1` [compound 135, N-(2-Dimethylamino-ethyl)-2-(2-ethyl-1,2,3,4-tetrahydro-isoquinolin-5-ylamino)-N-(2-trifluoromethyl-benzyl)-acetamide] gave a pEC50 of 8.05.

`CN(C)CCN(Cc1ccccc1C(F)(F)F)C(=O)CNc1ccc(F)c2c1CCN(CC1CC1)C2` [Example 288, 2-(2-Cyclopropylmethyl-8-fluoro-1,2,3,4-tetrahydro-isoquinolin-5-ylamino)-N-(2-dimethylamino-ethyl)-N-(2-trifluoromethyl-benzyl)-acetamide] had a pEC50 of 7.64.

`CN(C)CCN(Cc1ccc(Nc2ccc(F)cc2)cn1)C(=O)CNc1cccc2c1CCN(CC1CC1)C2` [Example 285, 2-(2-Cyclopropylmethyl-1,2,3,4-tetrahydro-isoquinolin-5-ylamino)-N-(2-dimethylamino-ethyl)-N-[5-(4-fluoro-phenylamino)-pyridin-2-ylmethyl]-acetamide] had a pEC50 of 6.39.

Molecule `O=C(CNc1cccc2c1CN(CC1CC1)CC2)N(CCN1CCC(F)(F)CC1)Cc1ccccc1C(F)(F)F` [compound 474, 2-(2-Cyclopropylmethyl-1,2,3,4-tetrahydro-isoquinolin-8-ylamino)-N-[2-(4,4-difluoro-piperidin-1-yl)-ethyl]-N-(2-trifluoromethyl-benzyl)-acetamide] had a pEC50 of 7.33.

As to `CCOC(=O)CN1CCc2c(cccc2NCC(=O)N(CCN(C)C)Cc2ncccc2C(F)(F)F)C1` [Example 369, [5-({[(2-Dimethylamino-ethyl)-(3-trifluoromethyl-pyridin-2-ylmethyl)-carbamoyl]-methyl}-amino)-3,4-dihydro-1H-isoquinolin-2-yl]-acetic acid ethyl ester], the pEC50 was 7.04.
